Read-outs that look alike come from different tables or passages of the source.
Key:
[1] = system: ddY-strain male mice; assay: Acute Toxicity Test (minimum lethal dose, oral); format: in vivo; settings: seven days after administration
Procedure: Test compounds were orally administered to groups of ddY-strain male mice weighing 20±1 g, each group consisting of three mice. Seven days after the administration, minimum lethal dose (MLD) of each compound was determined by observing the mortality.

[2] = system: clonidine-induced aggressive behavior; assay: Effect on Clonidine-Induced Aggressive Behavior (number of biting attacks during 30 minutes); format: in vivo, male ddY mice; settings: po; for Number of the Biting Attacks (mean ± S.E.M.), Test Compound-Treated Group: 60 min before clonidine 20 mg/kg ip, 30 min count
Procedure: The effect of a test compound on the aggressive behavior induced by intraperitoneal administration of clonidine was investigated. […] The experiment was performed by using several groups of male ddY mice (weighing 20 to 25 g, Japan SLC), each group consisting of two mice. The test compound was suspended in injectable distilled water (Otsuka Pharmaceutical Co., Ltd.) containing Tween 80 [polyoxyethylene (20) sorbitan monooleate]. Clonidine hydrochloride (Sigma Co.) was dissolved in physiological saline solution (Otsuka Pharmaceutical Co., Ltd.). The test compound suspension and the control suspension were orally administered to separate groups of the mice (0.1 ml per 10 g of body weight). Sixty minutes after the oral administration of the test compound, clonidine hydrochloride (20 mg/kg) was intraperitoneally injected. The number of biting attacks during 30 minutes after clonidine treatment was counted. The effect of the compound was evaluated by comparing the average number of biting attacks of the test compound-administered groups with that of control groups (Statistical comparison: Student's t-test).

[3] = Mus musculus, 10 mg/kg, read-out: Number of the Attacks of Test Compound-Treated Group/Number of the Attacks of Control Group
[4] = Mus musculus, 2.5 mg/kg, read-out: Number of the Attacks of Test Compound-Treated Group/Number of the Attacks of Control Group
[5] = Mus musculus, 0.63 mg/kg, read-out: Number of the Attacks of Test Compound-Treated Group/Number of the Attacks of Control Group

SMILES | MLD (minimum lethal dose) [1] [mg/kg] | Number of the Biting Attacks (mean ± S.E.M.), Test Compound-Treated Group ([2]; 10 mg/kg) | response vs control in vivo at 10 mg/kg [2, 3] [%] | Number of the Biting Attacks (mean ± S.E.M.), Test Compound-Treated Group ([2]; 2.5 mg/kg) | further results
CCCn1c(=O)c2c(nc(/C=C/c3ccc(OC)c(OC)c3OC)n2C)n(CCC)c1=O [Compound 22, (E)-7-Methyl-1,3-dipropyl-8-(2,3,4-trimethoxystyryl)xanthine] | > 300 | 33.1 ± 5.18 | 680 | – | –
CCCn1c(=O)c2c(nc(/C=C/c3cc(OC)c(OC)c(OC)c3)n2C)n(CCC)c1=O [Compound 5, (E)-7-Methyl-1,3-dipropyl-8-(3,4,5-trimethoxystyryl)xanthine] | > 300 | – | – | – | Number of the Biting Attacks (mean ± S.E.M.), Test Compound-Treated Group ([2]; 5 mg/kg): 25.4 ± 7.71; response vs control in vivo at 5 mg/kg ([2]; Mus musculus, 5 mg/kg, read-out: Number of the Attacks of Test Compound-Treated Group/Number of the Attacks of Control Group): 350%
CCCn1c(=O)c2c(nc(/C=C/c3ccc(OC)c(OC)c3)n2C)n(CCC)c1=O [Compound 1, (E)-8-(3,4-Dimethoxystyryl)-7-methyl-1,3-dipropylxanthine] | > 300 | – | – | 27.5 ± 7.3 | response vs control in vivo at 2.5 mg/kg [2, 4]: 480%
CCn1c(=O)c2c(nc(/C=C/c3ccccc3F)n2C)n(CC)c1=O [Compound 168, (E)-1,3-Diethyl-8-(2-fluorostyryl)-7-methylxanthine] | > 100 | 53.9 ± 8.59 | 710 | – | –
CCCn1c(=O)c2c(nc(/C=C/c3ccc(OC)c(C)c3C)n2C)n(CCC)c1=O [Compound 14, (E)-8-(4-Methoxy-2,3-dimethylstyryl)-7-methyl-1,3-dipropylxanthine] | > 300 | – | – | 40.7 ± 8.50 | response vs control in vivo at 2.5 mg/kg [2, 4]: 730%
CCn1c(=O)c2c(nc(/C=C/c3cc(OC)cc(OC)c3)n2C)n(CC)c1=O [Compound 130, (E)-8-(3,5-Dimethoxystyryl)-1,3-diethyl-7-methyl-xanthine] | > 300 | 52.2 ± 11.79 | 480 | – | –
CCn1c(=O)c2c(nc(/C=C/c3ccc(OC)c(OC)c3OC)n2C)n(CC)c1=O [Compound 80, (E)-1,3-Diethyl-7-methyl-8-(2,3,4-trimethoxystyryl)xanthine] | > 300 | 67.5 ± 9.35 | – | 59.3 ± 12.37 | Number of the Biting Attacks (mean ± S.E.M.), Test Compound-Treated Group ([2]; 0.63 mg/kg): 30.3 ± 7.00; response vs control in vivo at 0.63 mg/kg [2, 5]: 470%
CCn1c(=O)c2c(nc(/C=C/c3ccc(O)cc3)n2C)n(CC)c1=O [Compound 184, (E)-1,3-Diethyl-8-(4-hydroxystyryl)-7-methylxanthine] | > 100 | 77.1 ± 11.47 | – | – | –
CCn1c(=O)c2c(nc(/C=C/c3ccc(OC)c(C)c3C)n2C)n(CC)c1=O [Compound 82, (E)-1,3-Diethyl-8-(4-methoxy-2,3-dimethylstyryl)-7-methylxanthine] | > 300 | 61.8 ± 11.89 | 800 | 59.0 ± 13.31 | response vs control in vivo at 2.5 mg/kg ([2]; Mus musculus, read-out: Number of the Attacks of Test Compound-Treated Group/Number of the Attacks of Control Group): 910%
CCCn1c(=O)c2c(nc(/C=C/c3ccc(OC)cc3)n2C)n(CCC)c1=O [Compound 6, (E)-8-(4-Methoxystyryl)-7-methyl-1,3-dipropylxanthine] | > 300 | 83.7 ± 10.95 | – | – | –
C=CCn1c(=O)c2c(nc(/C=C/c3ccc(OC)c(OC)c3)n2C)n(CC=C)c1=O [Compound 70, (E)-1,3-Diallyl-8-(3,4-dimethoxystyryl)-7-methylxanthine] | > 100 | 60.3 ± 11.71 | 790 | – | –
CCn1c(=O)c2c(nc(/C=C/c3cc(OC)c(OC)c(OC)c3)n2C)n(CC)c1=O [Compound 4, (E)-1,3-diethyl-7-methyl-8-(3,4,5-trimethoxystyryl)xanthine] | > 300 | 51.3 ± 9.37 | – | 36.9 ± 7.81 | Number of the Biting Attacks (mean ± S.E.M.), Test Compound-Treated Group ([2]; 0.63 mg/kg): 25.3 ± 4.51; response vs control in vivo at 0.63 mg/kg [2, 5]: 970%; response vs control in vivo at 2.5 mg/kg [2, 4]: 540%
CCCn1c(=O)c2c(nc(/C=C/c3ccccc3)n2C)n(CCC)c1=O [Compound 3, (E)-7-Methyl-1,3-dipropyl-8-styrylxanthine] | > 300 | 26.1 ± 5.42 | 340 | – | –
CCn1c(=O)c2c(nc(/C=C/c3ccc(OC)c(Br)c3)n2C)n(CC)c1=O [Compound 114, (E)-8-(3-Bromo-4-methoxystyryl)-1,3-diethyl-7-methylxanthine] | > 100 | 37.8 ± 8.66 | – | – | –
CCCCOc1ccc(/C=C/c2nc3c(c(=O)n(CC)c(=O)n3CC)n2C)cc1 [Compound 148, (E)-8-(4-Butoxystyryl)-1,3-diethyl-7-methylxanthine] | > 100 | 46.3 ± 9.40 | – | – | –
CCn1c(=O)c2c(nc(/C=C/c3ccc(OC)c(OC)c3)n2C)n(CC)c1=O [Compound 74, (E)-8-(3,4-Dimethoxystyryl)-1,3-diethyl-7-methylxanthine] | > 300 | 73.3 ± 8.75 | – | 51.3 ± 8.70 | Number of the Biting Attacks (mean ± S.E.M.), Test Compound-Treated Group ([2]; 0.63 mg/kg): 23.2 ± 5.19; response vs control in vivo at 0.63 mg/kg [2, 5]: 380%; response vs control in vivo at 2.5 mg/kg [2, 4]: 840%

From US5543415A, “Antidepressants” (Kyowa Hakko Kogyo Co., Ltd., priority 1992, dated 1996)
